Values joined by “and” are separate entries in the source; they are usually repeats but may differ in a detail not shown here. Identical values can stand only once.
Tested on: NCI-H196 SCLC complex tumor spheroid viability
Assay: Anticancer human tumor NCI-H196 cell line growth inhibition;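 note: spheroids exposed to compounds for 7 days before readout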;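 for viability, T/C: 100% = DMSO vehicle control wells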
Details: for viability, T/C: stronger effect = lower value
In short: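 Complex tumor spheroids combined malignant cells with endothelial cells and mesenchymal stem cells. DNA-damaging drugs and DNA repair inhibitors were tested alone and in combination, at half-log dilutions down from clinical Cmax (top 10 microM if Cmax unknown), 0.25% DMSO final.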

[1] = curve of first compound, second compound 0.003 µM
[2] = second compound 0.003 µM, first compound 0.0316 µM
[3] = second compound 0.003 µM, first compound 0.1 µM
[4] = second compound 0.003 µM, first compound 0.316 µM
[5] = second compound 0.003 µM, first compound 1 µM
[6] = second compound 0.003 µM, first compound 3.16 µM
[7] = second compound 0.003 µM, first compound 10 µM

In the case of `[2H]c1nc(C)nc([2H])c1-c1cc(NC[C@@H](C)c2cccc3c(C(=O)NC)ccnc23)ncn1` + Cn1nnc2c(C(N)=O)ncn2c1=O, the IC50 (curve of first compound, second compound 1 µM) is reported as greater than 10 µM, the IC50 (curve of first compound, second compound 3.16 µM) is reported as greater than 10 µM and the IC50 (curve of first compound, second compound 10 µM) is reported as greater than 10 µM. The IC50 (curve of first compound, second compound 31.6 µM) was greater than 10 µM, the IC50 (curve of first compound, second compound 100 µM) was greater than 10 µM and the viability, T/C (second compound 1 µM, first compound 0.0316 µM) was 94.1%. For the same molecule, the viability, T/C (second compound 1 µM, first compound 0.1 µM) was 96.6%, the viability, T/C (second compound 1 µM, first compound 0.316 µM) was 97.9% and the viability, T/C (second compound 1 µM, first compound 1 µM) was 99.5%. For the same molecule, the viability, T/C (second compound 1 µM, first compound 3.16 µM) was 105%, the viability, T/C (second compound 1 µM, first compound 10 µM) was 91.2% and the viability, T/C (second compound 3.16 µM, first compound 0.0316 µM) was 100%. It also gave a viability, T/C (second compound 3.16 µM, first compound 0.1 µM) of 104%, a viability, T/C (second compound 3.16 µM, first compound 0.316 µM) of 98.5% and a viability, T/C (second compound 3.16 µM, first compound 1 µM) of 97.5%. It also gave a viability, T/C (second compound 3.16 µM, first compound 3.16 µM) of 90.8%, a viability, T/C (second compound 3.16 µM, first compound 10 µM) of 96.9% and a viability, T/C (second compound 10 µM, first compound 0.0316 µM) of 110%. It also gave a viability, T/C (second compound 10 µM, first compound 0.1 µM) of 99.8%, a viability, T/C (second compound 10 µM, first compound 0.316 µM) of 97.7% and a viability, T/C (second compound 10 µM, first compound 1 µM) of 101%. For the same molecule, the viability, T/C (second compound 10 µM, first compound 3.16 µM) was 101%, the viability, T/C (second compound 10 µM, first compound 10 µM) was 107% and the viability, T/C (second compound 31.6 µM, first compound 0.0316 µM) was 109%. It also gave a viability, T/C (second compound 31.6 µM, first compound 0.1 µM) of 104%, a viability, T/C (second compound 31.6 µM, first compound 0.316 µM) of 108% and a viability, T/C (second compound 31.6 µM, first compound 1 µM) of 112%. For the same molecule, the viability, T/C (second compound 31.6 µM, first compound 3.16 µM) was 99.8%, the viability, T/C (second compound 31.6 µM, first compound 10 µM) was 118% and the viability, T/C (second compound 100 µM, first compound 0.0316 µM) was 101%. For the same molecule, the viability, T/C (second compound 100 µM, first compound 0.1 µM) was 102%, the viability, T/C (second compound 100 µM, first compound 0.316 µM) was 99.3% and the viability, T/C (second compound 100 µM, first compound 1 µM) was 102%. The viability, T/C (second compound 100 µM, first compound 3.16 µM) was 103% and the viability, T/C (second compound 100 µM, first compound 10 µM) was 104%.

For `[2H]c1nc(C)nc([2H])c1-c1cc(NC[C@@H](C)c2cccc3c(C(=O)NC)ccnc23)ncn1` + CC[C@@]1(O)C(=O)OCc2c1cc1n(c2=O)Cc2cc3c(CN(C)C)c(O)ccc3nc2-1, the IC50 [1] was greater than 10 µM, the IC50 (curve of first compound, second compound 0.00949 µM) was greater than 10 µM and the IC50 (curve of first compound, second compound 0.03 µM) was greater than 10 µM. For the same molecule, the IC50 (curve of first compound, second compound 0.0949 µM) was greater than 10 µM, the IC50 (curve of first compound, second compound 0.3 µM) was greater than 10 µM and the viability, T/C [2] was 103%. For the same molecule, the viability, T/C [3] was 104%, the viability, T/C [4] was 92.5% and the viability, T/C [5] was 97.2%. For the same molecule, the viability, T/C [6] was 106%, the viability, T/C [7] was 100% and the viability, T/C (second compound 0.00949 µM, first compound 0.0316 µM) was 100%. It also gave a viability, T/C (second compound 0.00949 µM, first compound 0.1 µM) of 96.5%, a viability, T/C (second compound 0.00949 µM, first compound 0.316 µM) of 91.8% and a viability, T/C (second compound 0.00949 µM, first compound 1 µM) of 95.5%. It also gave a viability, T/C (second compound 0.00949 µM, first compound 3.16 µM) of 99.7%, a viability, T/C (second compound 0.00949 µM, first compound 10 µM) of 100% and a viability, T/C (second compound 0.03 µM, first compound 0.0316 µM) of 96.8%. For the same molecule, the viability, T/C (second compound 0.03 µM, first compound 0.1 µM) was 102%, the viability, T/C (second compound 0.03 µM, first compound 0.316 µM) was 95.4% and the viability, T/C (second compound 0.03 µM, first compound 1 µM) was 93.4%. It also gave a viability, T/C (second compound 0.03 µM, first compound 3.16 µM) of 95.5%, a viability, T/C (second compound 0.03 µM, first compound 10 µM) of 94.6% and a viability, T/C (second compound 0.0949 µM, first compound 0.0316 µM) of 99.4%. The viability, T/C (second compound 0.0949 µM, first compound 0.1 µM) was 102%, the viability, T/C (second compound 0.0949 µM, first compound 0.316 µM) was 107% and the viability, T/C (second compound 0.0949 µM, first compound 1 µM) was 102%. It also gave a viability, T/C (second compound 0.0949 µM, first compound 3.16 µM) of 100%, a viability, T/C (second compound 0.0949 µM, first compound 10 µM) of 102% and a viability, T/C (second compound 0.3 µM, first compound 0.0316 µM) of 109%. It also gave a viability, T/C (second compound 0.3 µM, first compound 0.1 µM) of 103%, a viability, T/C (second compound 0.3 µM, first compound 0.316 µM) of 94.8% and a viability, T/C (second compound 0.3 µM, first compound 1 µM) of 105%. The viability, T/C (second compound 0.3 µM, first compound 3.16 µM) was 104% and the viability, T/C (second compound 0.3 µM, first compound 10 µM) was 100%.

In the case of `Cc1cc(C)c(CNC(=O)c2cc(-c3ccc(CN4CCOCC4)cc3)cc3c2cnn3C2CCCC2)c(=O)[nH]1` + COc1cc2c(cc1O)CCNC21CSC2c3c(OC(C)=O)c(C)c4c(c3C(COC1=O)N1C(O)C3Cc5cc(C)c(OC)c(O)c5C(C21)N3C)OCO4, the IC50 (curve of first compound, second compound 30 pM) is reported as greater than 10 µM, the IC50 (curve of first compound, second compound 94.9 pM) is reported as greater than 10 µM and the IC50 (curve of first compound, second compound 0.0003 µM) is reported as greater than 10 µM. For the same molecule, the IC50 (curve of first compound, second compound 0.000949 µM) was greater than 10 µM, the IC50 [1] was less than 0.0316 µM and the viability, T/C (second compound 30 pM, first compound 0.0316 µM) was 106%. It also gave a viability, T/C (second compound 30 pM, first compound 0.1 µM) of 104%, a viability, T/C (second compound 30 pM, first compound 0.316 µM) of 105% and a viability, T/C (second compound 30 pM, first compound 1 µM) of 103%. For the same molecule, the viability, T/C (second compound 30 pM, first compound 3.16 µM) was 97.2%, the viability, T/C (second compound 30 pM, first compound 10 µM) was 105% and the viability, T/C (second compound 94.9 pM, first compound 0.0316 µM) was 109%. It also gave a viability, T/C (second compound 94.9 pM, first compound 0.1 µM) of 101%, a viability, T/C (second compound 94.9 pM, first compound 0.316 µM) of 99.5% and a viability, T/C (second compound 94.9 pM, first compound 1 µM) of 104%. The viability, T/C (second compound 94.9 pM, first compound 3.16 µM) was 107%, the viability, T/C (second compound 94.9 pM, first compound 10 µM) was 106% and the viability, T/C (second compound 0.0003 µM, first compound 0.0316 µM) was 103%. The viability, T/C (second compound 0.0003 µM, first compound 0.1 µM) was 105%, the viability, T/C (second compound 0.0003 µM, first compound 0.316 µM) was 105% and the viability, T/C (second compound 0.0003 µM, first compound 1 µM) was 105%. The viability, T/C (second compound 0.0003 µM, first compound 3.16 µM) was 102%, the viability, T/C (second compound 0.0003 µM, first compound 10 µM) was 104% and the viability, T/C (second compound 0.000949 µM, first compound 0.0316 µM) was 87.8%. The viability, T/C (second compound 0.000949 µM, first compound 0.1 µM) was 94.6%, the viability, T/C (second compound 0.000949 µM, first compound 0.316 µM) was 91.8% and the viability, T/C (second compound 0.000949 µM, first compound 1 µM) was 83.9%. For the same molecule, the viability, T/C (second compound 0.000949 µM, first compound 3.16 µM) was 85%, the viability, T/C (second compound 0.000949 µM, first compound 10 µM) was 85% and the viability, T/C [2] was 6.27%. For the same molecule, the viability, T/C [3] was 7.07%, the viability, T/C [4] was 9.74% and the viability, T/C [5] was 5.44%. For the same molecule, the viability, T/C [6] was 5.81% and the viability, T/C [7] was 3.71%.

In the case of `CC[C@@]1(O)C(=O)OCc2c1cc1n(c2=O)Cc2cc3c(CN(C)C)c(O)ccc3nc2-1`, the viability, T/C (compound 0.003 µM) is reported as 101% [middle of 10 runs], the viability, T/C (compound 0.00949 µM) is reported as 99.5% [middle of 10 runs] and the viability, T/C (compound 0.03 µM) is reported as 95.5% [middle of 10 runs]. For the same molecule, the viability, T/C (compound 0.0949 µM) was 102% [middle of 10 runs], the viability, T/C (compound 0.3 µM) was 105% [middle of 10 runs] and the IC50 (compound alone, run of 11/07/2019) was greater than 0.3 µM. It also gave an IC50 (compound alone, run of 12/16/2019) greater than 0.3 µM.

In the case of `Cc1cc(C)c(CNC(=O)c2cc(-c3ccc(CN4CCOCC4)cc3)cc3c2cnn3C2CCCC2)c(=O)[nH]1`, the viability, T/C (compound 0.0316 µM) is reported as 104% and 97.2% and 99.1%, the viability, T/C (compound 0.1 µM) is reported as 96.1% and 97.9% and 103% and the viability, T/C (compound 0.316 µM) is reported as 93.3% and 97% and 102%. For the same molecule, the viability, T/C (compound 1 µM) was 91.3% and 96.2% and 98.9%, the viability, T/C (compound 3.16 µM) was 101% and 94% and 103% and the viability, T/C (compound 10 µM) was 106% and 103% and 111%. It also gave an IC50 (curve of compound) greater than 10 µM.
